These results are taken from BindingDB's records for doi:10.1016/s0960-894x(00)00138-4 (Berlex Biosciences, 2000).

Molecules are shown by their SMILES.

For the assay, the target named is Cationic trypsin (Bos taurus). Briefly: In vitro inhibition of bovine trypsin.
The term Ki denotes the equilibrium dissociation constant of an inhibitor or competing ligand from its target. A higher Ki goes with a looser hold on the target. In the case of `N=C(N)c1ccc(-n2ccc3ccc(NC(=O)c4cccc(C(=N)N)c4)cc32)cc1` [3-Carbamimidoyl-N-[1-(4-carbamimidoyl-phenyl)-1H-indol-6-yl]-benzamide], affinity was put at a Ki of 410 nM. For `N=C(N)c1ccc(-n2ccc3ccc(NCc4ccc5ccc(C(=N)N)cc5c4)cc32)cc1` [7-{[1-(4-Carbamimidoyl-phenyl)-1H-indol-6-ylamino]-methyl}-naphthalene-2-carboxamidine], affinity was put at a Ki of 300 nM.

`CCOC(=O)c1cc2ccc(OC3CCN(C(C)=N)CC3)cc2n1Cc1ccc2ccc(C(=N)N)cc2c1` [1-(7-Carbamimidoyl-naphthalen-2-ylmethyl)-6-[1-(1-imino-ethyl)-piperidin-4-yloxy]-1H-indole-2-carboxylic acid ethyl ester] had a Ki of 20 nM.

Take `N=C(N)c1ccc(-n2c3ccccc3c3ccc(OCc4ccc5ccc(C(=N)N)cc5c4)cc32)cc1` [7-[9-(4-Carbamimidoyl-phenyl)-9H-carbazol-2-yloxymethyl]-naphthalene-2-carboxamidine]: the Ki was 510 nM. `CN(C)C(=O)COc1ccc2c3ccccc3n(Cc3ccc4ccc(C(=N)N)cc4c3)c2c1` [2-[9-(7-Carbamimidoyl-naphthalen-2-ylmethyl)-9H-carbazol-2-yloxy]-N,N-dimethyl-acetamide] displayed a Ki of 90 nM. In turn, `N=C(N)c1ccc(-n2ccc3ccc(NCc4cccc(C(=N)N)c4)cc32)cc1` [3-{1-[4-amino(imino)methylphenyl]-1H-6-indolylaminomethyl}phenyl-iminomethanamine] displayed a Ki of 1620 nM.
